According to patent US9663515B2, “Dihydropyrrolopyridine inhibitors of ROR-gamma” (Vitae Pharmaceuticals, Inc., priority 2014, dated 2017):

Key:
[1] = molecular target: recombinant RORγ Ligand Binding Domain (LBD) protein (Homo sapiens (Human), UniProt P51449); experiment: Radio-Ligand RORγ Binding Assay (Assay 1); conditions: competition with 25-hydroxy [26,27-3H]-cholesterol, SPA; read-out: RORγ Binding Ki Range (nM) (Assay 1)
Protocol: Radio-Ligand RORγ Binding Assay (Assay 1)
Compounds of the present invention were tested for ability to bind to RORγ in a cell-free competition assay with commercially available radio-ligand (RL), 25-hydroxy [26,27-^3H]-cholesterol (PerkinElmer, Cat. # NET674250UC), for a ligand binding site on a recombinant RORγ Ligand Binding Domain (LBD) protein expressed as a 6×His-Glutathione-S-Transferase (GST) fusion. […] The plate was shaken at 700 rpm for 20 min and incubated for 10 min at rt, after which 40 μL of poly-Lys YSi SPA beads (PerkinElmer, Cat. # RPNQ0010) were added to achieve 50 μg of the beads per well. The plate was incubated on an orbital shaker for 20 min and then for 10 min without agitation at rt. SPA signal for tritium beta radiation was registered on PerkinElmer Microbeta plate reader. […] The percent inhibition vs. concentration data were fit into a four-parameter model, and IC50 values were calculated from the fit as the concentrations corresponding to the inflection points on the dose-response curves.

[2] = molecular target: full-length RORγt in Jurkat cells (Homo sapiens (Human), UniProt P51449); experiment: RORγt 5×RORE Assay in Jurkat Cells (Assay 2); type: cell-based; conditions: 5×RORE Nanoluc luciferase reporter, read-out: RORγt5X IC50 Range (nM) (Assay 2)
Chain of full-length RORγt in Jurkat cells (P51449 other isoform, or with tags, fused parts or gaps): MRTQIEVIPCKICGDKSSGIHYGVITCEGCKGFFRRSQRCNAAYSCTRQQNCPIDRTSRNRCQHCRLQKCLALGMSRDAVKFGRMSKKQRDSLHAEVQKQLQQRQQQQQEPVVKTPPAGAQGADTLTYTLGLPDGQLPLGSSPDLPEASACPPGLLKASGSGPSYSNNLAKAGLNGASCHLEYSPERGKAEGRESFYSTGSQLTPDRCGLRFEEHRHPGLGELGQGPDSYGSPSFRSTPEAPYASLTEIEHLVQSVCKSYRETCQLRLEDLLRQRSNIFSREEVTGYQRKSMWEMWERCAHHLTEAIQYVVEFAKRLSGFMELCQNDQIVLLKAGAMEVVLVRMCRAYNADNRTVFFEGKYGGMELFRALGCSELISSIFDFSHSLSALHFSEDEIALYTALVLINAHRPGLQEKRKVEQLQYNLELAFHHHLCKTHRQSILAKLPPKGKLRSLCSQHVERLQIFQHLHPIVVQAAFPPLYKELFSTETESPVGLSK
Protocol: [formula] RORγt 5×RORE Assay in Jurkat Cells (Assay 2)
Compounds of the present invention were tested for RORγ inverse agonist activity in a cell-based, transcriptional activity assay. […] (Promega, Cat. # N1021) using KpnI and HindIII restriction sites. […] Tested compounds were added to the cells in the same media (final concentration of DMSO was 0.1% (v/v)), and the plates were incubated at 37° C./5% CO2 for 16-18 hr. Luciferase activity in the conditioned supernatants was determined with NanoGlo® assay reagents (Promega, Cat.# N1130).

[3] = molecular target: hERG potassium ion channel (Homo sapiens (Human), UniProt Q12809); experiment: hERG Assay (Assay 4); type: cell-based; conditions: HEK293 cells stably transfected with hERG cDNA, pH 7.4, compound at 3 μM, patch clamp, HEK 293 cells transfected with hERG
Chain of hERG potassium ion channel (Q12809 whole entry): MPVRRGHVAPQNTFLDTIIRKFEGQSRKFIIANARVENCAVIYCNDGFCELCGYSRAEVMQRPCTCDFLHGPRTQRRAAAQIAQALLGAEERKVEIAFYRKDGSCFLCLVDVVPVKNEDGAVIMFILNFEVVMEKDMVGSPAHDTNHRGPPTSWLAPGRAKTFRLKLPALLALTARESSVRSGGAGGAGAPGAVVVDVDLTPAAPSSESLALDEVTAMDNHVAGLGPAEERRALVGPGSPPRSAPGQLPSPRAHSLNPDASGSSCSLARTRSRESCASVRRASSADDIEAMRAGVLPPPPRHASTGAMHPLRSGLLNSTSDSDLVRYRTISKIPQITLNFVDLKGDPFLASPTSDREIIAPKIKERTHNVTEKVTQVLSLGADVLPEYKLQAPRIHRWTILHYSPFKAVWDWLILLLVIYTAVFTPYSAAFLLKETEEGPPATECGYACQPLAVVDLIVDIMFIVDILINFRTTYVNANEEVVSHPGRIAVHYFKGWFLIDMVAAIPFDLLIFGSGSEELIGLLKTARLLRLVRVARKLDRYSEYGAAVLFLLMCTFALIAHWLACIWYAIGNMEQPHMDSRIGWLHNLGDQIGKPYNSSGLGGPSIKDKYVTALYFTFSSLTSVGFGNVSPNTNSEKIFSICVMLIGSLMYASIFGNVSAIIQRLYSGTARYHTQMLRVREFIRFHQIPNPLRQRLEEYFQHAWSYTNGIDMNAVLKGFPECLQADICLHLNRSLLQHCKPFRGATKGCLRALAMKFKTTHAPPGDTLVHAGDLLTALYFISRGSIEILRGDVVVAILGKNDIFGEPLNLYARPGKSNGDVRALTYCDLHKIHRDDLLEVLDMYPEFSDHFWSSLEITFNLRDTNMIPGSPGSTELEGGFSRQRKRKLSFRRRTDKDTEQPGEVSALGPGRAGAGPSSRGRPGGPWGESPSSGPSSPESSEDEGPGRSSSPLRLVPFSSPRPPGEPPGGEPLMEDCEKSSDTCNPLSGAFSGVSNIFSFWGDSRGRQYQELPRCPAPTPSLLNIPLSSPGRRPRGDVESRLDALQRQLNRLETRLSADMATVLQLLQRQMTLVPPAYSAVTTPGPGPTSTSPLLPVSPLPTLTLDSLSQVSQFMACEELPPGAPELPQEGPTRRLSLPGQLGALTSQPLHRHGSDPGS
Protocol: Compounds of the invention were tested in vitro against the hERG (human ether-à-go-go-related gene) potassium ion channel (a surrogate for IKr, the rapidly activating delayed rectifier cardiac potassium ion channel).
The buffer was HEPES-buffered physiological saline (HB-PS) solution composed of: 137 mM NaCl, 4.0 mM KCl, 1.8 mM CaCl2, 1 mM MgCl2, 10 mM HEPES, 10 mM glucose, pH adjusted to 7.4 with NaOH, and 0.3% DMSO. Chemicals used in solution preparation were purchased from Sigma-Aldrich (St. Louis, Mo.), unless otherwise noted, and were of ACS reagent grade purity or higher.
HEK (human embryonic kidney) 293 cells were stably transfected with hERG cDNA.
For the patch clamp experiment, onset and steady state inhibition of hERG potassium current was measured using a pulse pattern with fixed amplitudes (depolarization: +20 mV for 2 s; repolarization: −50 mV for 2 s) repeated at 10 s intervals from a holding potential of −80 mV. Peak tail current was measured during the 2 s step to −50 mV. A steady state was maintained for at least 30 seconds before applying compound or positive control (cisapride). Peak tail currents were measured until a new steady state was achieved.
Data acquisition and analyses were performed using the suite of pCLAMP® (ver. 8.2) programs (MDS Analytical Technologies, Sunnyvale, Calif.). Steady state was defined by the limiting constant rate of change with time (linear time dependence). The steady state before and after each compound application was used to calculate the percentage of current inhibited at each concentration.
Concentration-response data were fit to an equation of the following form: % Inhibition={1−1/[1+([Test]/IC50)N]}*100
where [Test] was the compound concentration, IC50 was the compound concentration at half-maximal inhibition, N was the Hill coefficient, and % Inhibition was the percentage of current inhibited at each compound concentration. Nonlinear least squares fits were solved with the Solver add-in for Excel 2003 (Microsoft, WA) and the IC50 was calculated.

[4] = test system: IL-17A production in human whole blood; experiment: Human Whole Blood Assay (Assay 3); type: cell-based; conditions: IL-17A secretion, CytoStim activation, 48 h, 50% blood/media
Protocol: Human Whole Blood Assay (Assay 3)
Compounds of the invention were tested in the human whole blood assay to measure their effects on IL-17A production as determined by cytokine secretion into 50% blood/media supernatant. Mixtures of sodium heparinized whole blood (isolated from healthy human donors) and the T cell activator CytoStim, in the presence or absence of compound, were plated in sterilized, tissue culture-treated 24-well plates. […]
Mixtures were incubated at 37° C./5% CO2 for 48 h, after which, 200 μL of clean supernatant (i.e., no red blood cells) from each well was transferred to a well in a 96-well plate. IL-17A cytokine expression was determined using 25 μL of the transferred supernatant diluted with 25 μL of Diluent 43 from the Human IL-17A V-PLEX™ kit (cat. # K151RFD-4, Meso Scale Discovery, Rockville, Md.). […] The IL-17A V-PLEX™ plates were read using the Meso Scale Discovery Imager (Model 1200). The levels of IL-17A were extrapolated from a standard curve using a four-parameter non-linear fitting model and expressed as pg/mL. […]

Chain of recombinant RORγ Ligand Binding Domain (LBD) protein (P51449 269-508): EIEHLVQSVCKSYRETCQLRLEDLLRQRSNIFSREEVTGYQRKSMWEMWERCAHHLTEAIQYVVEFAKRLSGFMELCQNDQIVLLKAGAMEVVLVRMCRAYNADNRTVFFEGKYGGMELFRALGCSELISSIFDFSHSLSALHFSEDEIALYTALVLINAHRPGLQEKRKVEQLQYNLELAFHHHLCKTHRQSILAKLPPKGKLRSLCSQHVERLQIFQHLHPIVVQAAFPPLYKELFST

SMILES	Ki [1] [nM]	IC50 [2] [nM]	inhibition at 3 µM [3] [%]	IC50 [4] [nM]
CCS(=O)(=O)c1ccc([C@H](COCC(=O)O)NC(=O)c2cnc3c(c2)CN(C[C@H]2CC[C@H](C(F)(F)F)CC2)[C@H]3C(C)C)cc1 [Compound 14]	< 100	100 to 1000		
CCS(=O)(=O)c1ccc(CNC(=O)c2cnc3c(c2)CN(C[C@H]2CC[C@H](C(F)(F)F)CC2)[C@H]3C(C)C)nc1			45.4	
CC[C@H]1c2ncc(C(=O)N[C@@H](COC)c3ccc(S(=O)(=O)CC)cc3)cc2CN1C[C@@H]1CC[C@@H](C(F)(F)F)OC1 (single isomer, unassigned) [Compound 4]	< 100	< 100		
CC[C@H]1c2ncc(C(=O)N[C@@H](COC(N)=O)c3ccc(S(=O)(=O)CC)cc3)cc2CN1C[C@H]1CC[C@H](C(F)(F)F)CC1 [Compound 2, (R)-2-((S)-7-ethyl-6-((trans-4-(trifluoromethyl)cyclohexyl)methyl)-6,7-dihydro-5H-pyrrolo[3,4-b]pyridine-3-carboxamido)-2-(4-(ethylsulfonyl)phenyl)ethyl carbamate]	[…]	[…]	38.8	[…]
CC[C@H]1c2ncc(C(=O)N[C@@H](COC)c3ccc(S(=O)(=O)CC)cc3)cc2CN1C[C@H]1CC[C@H](C(F)(F)F)OC1 (single isomer, unassigned) [Compound 3]	< 100	< 100	24.3	
CCS(=O)(=O)c1ccc([C@@H](COC(N)=O)NC(=O)c2cnc3c(c2)CN(C[C@H]2CC[C@H](C(F)(F)F)CC2)[C@H]3C(C)C)cc1 [Compound 12]	< 100	< 100	38.8	
CC[C@H]1c2ncc(C(=O)N[C@@H](COC)c3ccc(S(=O)(=O)CC)cc3)cc2CN1C[C@@H]1CC[C@H](C(F)(F)F)OC1 (single isomer, unassigned) [Compound 5]	< 100	> 1000		
CCS(=O)(=O)c1ccc(CNC(=O)c2cnc3c(c2)CN(C[C@H]2CC[C@H](C(F)(F)F)CC2)[C@H]3C(C)C)cc1			57	
CC[C@H]1c2ncc(C(=O)N[C@@H](COC)c3ccc(S(=O)(=O)CC)cc3)cc2CN1C[C@H]1CC[C@@H](C(F)(F)F)OC1 (single isomer, unassigned) [Compound 6]	< 100	> 1000		
CC[C@H]1c2ncc(C(=O)N[C@@H](COC)c3ccc(S(=O)(=O)CC)cc3)cc2CN1C[C@H]1CC[C@H](C(F)(F)F)CC1 [Compound 1, (S)-7-ethyl-N—((R)-1-(4-(ethylsulfonyl)phenyl)-2-methoxyethyl)-6-((trans-4-(trifluoromethyl)cyclohexyl)methyl)-6,7-dihydro-5H-pyrrolo[3,4-b]pyridine-3-carboxamide]	< 100	< 100	24.3	< 100
CCS(=O)(=O)c1ccc([C@H](COC)NC(=O)c2cnc3c(c2)CN(C[C@H]2CC[C@@H](C(F)(F)F)CC2)[C@H]3C(C)C)cc1 [Compound 8]	< 100	> 1000		
CCS(=O)(=O)c1ccc([C@@H](COC(N)=O)NC(=O)c2cnc3c(c2)CN(C[C@H]2CC[C@@H](C(F)(F)F)CC2)[C@H]3C(C)C)nc1 [Compound 9]	< 100	> 1000		
CCS(=O)(=O)c1ccc([C@H](COC(N)=O)NC(=O)c2cnc3c(c2)CN(C[C@H]2CC[C@H](C(F)(F)F)CC2)[C@H]3C(C)C)nc1 [Compound 10]	< 100	< 100		
CCS(=O)(=O)c1ccc([C@H](COC(N)=O)NC(=O)c2cnc3c(c2)CN(C[C@H]2CC[C@@H](C(F)(F)F)CC2)[C@H]3C(C)C)cc1 [Compound 11]	< 100	> 1000		
CCS(=O)(=O)c1ccc([C@H](COC)NC(=O)c2cnc3c(c2)CN(C[C@H]2CC[C@H](C(F)(F)F)CC2)[C@H]3C(C)C)cc1 [Compound 15]	< 100	< 100	50	
